This note sets out measurements from PMC6952396, “Structural basis for itraconazole-mediated NPC1 inhibition” (Nature Communications, 2020).

Values joined by “and” are separate entries in the source; they are usually repeats but may differ in a detail not shown here. Identical values can stand only once.

Broadly, the IC50 is the point on the concentration scale where inhibition reaches its midpoint.

The experiment addresses T1, NPC1 (Cricetulus griseus, UniProt Q9JLG3).
T1 construct: CHO-7 cells in the medium are deprived of cholesterol to induce the LDL receptors biosynthesis; endogenous in cells; host or cells: CHO-7 cells
T1 sequence (Q9JLG3 23-1277): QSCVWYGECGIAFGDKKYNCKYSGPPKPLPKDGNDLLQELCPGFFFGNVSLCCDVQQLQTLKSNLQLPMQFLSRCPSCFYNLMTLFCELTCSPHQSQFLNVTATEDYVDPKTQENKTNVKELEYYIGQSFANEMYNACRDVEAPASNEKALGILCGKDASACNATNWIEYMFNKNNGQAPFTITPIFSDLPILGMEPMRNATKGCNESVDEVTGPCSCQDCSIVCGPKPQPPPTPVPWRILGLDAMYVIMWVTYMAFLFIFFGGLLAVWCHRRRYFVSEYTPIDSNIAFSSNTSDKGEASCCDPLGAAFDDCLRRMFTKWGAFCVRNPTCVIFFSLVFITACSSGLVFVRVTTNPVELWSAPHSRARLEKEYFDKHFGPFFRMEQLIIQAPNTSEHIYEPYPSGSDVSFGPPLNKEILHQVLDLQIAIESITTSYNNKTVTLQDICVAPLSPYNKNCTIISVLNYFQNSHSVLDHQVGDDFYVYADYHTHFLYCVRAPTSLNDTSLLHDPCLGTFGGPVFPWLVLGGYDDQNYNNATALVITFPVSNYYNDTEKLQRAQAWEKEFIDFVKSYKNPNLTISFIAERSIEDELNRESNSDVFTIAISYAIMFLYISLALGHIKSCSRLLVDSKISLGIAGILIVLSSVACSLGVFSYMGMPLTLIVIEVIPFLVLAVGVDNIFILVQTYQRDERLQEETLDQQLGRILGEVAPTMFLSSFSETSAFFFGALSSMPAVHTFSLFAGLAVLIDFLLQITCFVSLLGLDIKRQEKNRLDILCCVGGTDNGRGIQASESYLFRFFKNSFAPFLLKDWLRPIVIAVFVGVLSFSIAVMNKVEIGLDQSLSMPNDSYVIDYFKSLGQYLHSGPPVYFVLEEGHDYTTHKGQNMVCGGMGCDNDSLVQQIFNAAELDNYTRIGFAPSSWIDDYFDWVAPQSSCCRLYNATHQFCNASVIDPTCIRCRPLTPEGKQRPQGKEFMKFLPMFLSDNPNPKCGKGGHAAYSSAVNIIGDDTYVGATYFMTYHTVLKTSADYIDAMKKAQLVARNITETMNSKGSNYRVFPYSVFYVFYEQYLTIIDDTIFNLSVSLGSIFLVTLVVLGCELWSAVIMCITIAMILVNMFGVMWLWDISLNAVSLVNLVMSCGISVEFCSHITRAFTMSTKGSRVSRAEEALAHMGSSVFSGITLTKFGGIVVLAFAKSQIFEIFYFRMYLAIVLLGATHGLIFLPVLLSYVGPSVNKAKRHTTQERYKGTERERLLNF
Put plainly: Cholesterol re-esterification (ACAT) assay measuring NPC1-mediated export of cholesterol from lysosomes in CHO-7 cells. The experiment is classed as cell-based. The settings on record: for cholesteryl [14C] oleate formed, Repeat 1 / cholesteryl [14C] oleate formed, Repeat 2: Fig. 2 source data; for cholesteryl [14C] oleate formed, Repeat 3 / cholesteryl [14C] oleate formed, Repeat 4: Supplementary Fig. 3 source data; for IC50: IC50 (concentration at which each compound inhibited cholesterol esterification by 50%), 10% FCS, 4 h then 2 h [14C] oleate pulse. The text has this:
Itraconazole has three chiral centers (Supplementary Fig. 2a). The pharmaceutical form contains four cis-stereoisomers in a 1:1:1:1 molar ratio (Supplementary Fig. 2a–d). To determine the activity of the cis-stereoisomers, the individual isomers were isolated and identified based on their optical rotation in chloroform following a previous report (Supplementary Fig. 2e)[26]. Then, they were separately tested in a cholesterol re-esterification assay used to measure NPC1-mediated export of cholesterol from lysosomes. Briefly, CHO-7 cells in the medium are deprived of cholesterol to induce the LDL receptors biosynthesis. The cells are then incubated with fetal calf serum (FCS) that contains LDL. The LDL-derived cholesterol will now be transported by functional NPC1 protein from the lysosome to the endoplasmic reticulum (ER). The acyl-CoA:cholesterol actyltransferase named ACAT can now re-esterify the cholesterol in the ER. Therefore, the cells were pulse-labeled with [^14C] oleate and we can measure the synthesis of cholesteroyl [^14C] oleate to evaluate the activity of NPC1 protein. Using this assay, we tested the ability of various itraconazole to inhibit NPC1 activity.
Fig. 2 ACAT activity of itraconazole and ketoconazole in CHO-7 cells. On day 0, CHO-7 cells were set up in medium A with 5% LPDS at 2.5 × 10^5 cells/well in 6-well dish. On day 2, cells were switched to medium A with 5% LPDS containing 50 µM sodium compactin and 50 µM sodium mevalonate. On day 3 the cells received fresh medium B containing compactin and mevalonate with various concentration compounds in the presence of 10% FCS containing lipoproteins. After incubation for 4 h at 37 °C, each cell monolayer was pulse-labeled for 2 h with 0.1 mM sodium [^14C] oleate (5792 dpm/nmol). The cells were then harvested for measurement of their content of cholesteryl [^14C] oleate and [^14C] triglycerides, as described in Methods. […] Itraconazole mixture, isomer A (Supplementary Fig. 2a), isomer B (Supplementary Fig. 2b) and isomer C (Supplementary Fig. 2c) were added at final concentrations of 0.3 μM. The isomer D (Supplementary Fig. 2d), I-Br and ketoconazole were added at final concentrations of 1 μM. The biological repeats are shown as individual values. Source data are provided as a Source Data file.
On day 0, cells were set up in medium A with 5% LPDS at 2.5 × 10^5 cells/well in six-well dish. On day 2, cells were switched to medium A with 5% LPDS containing 50 µM sodium compactin and 50 µM sodium mevalonate. On day 3 the cells received fresh medium B containing compactin and mevalonate with indicated concentration triazole compounds in the presence of 10% FCS containing lipoproteins. After incubation for 4 h at 37 °C, each cell monolayer was pulse-labeled for 2 h with 0.1 mM sodium [^14C] oleate (5792 dpm/nmol). The cells were then harvested for measurement of their content of cholesteryl [^14C] oleate and [^14C] triglycerides.
The rate of incorporation of [^14C] oleate into cholesteryl [^14C] oleate and [^14C] triglycerides by monolayers of NPC1^−/− cells and CHO-7 cells was measured as described previously. In brief, cells were switched to medium containing LPDS supplemented with compactin and mevolonate at 16 h before the experiments. On the day of the experiment, cells were incubated for 4 h with fresh medium containing FCS as a source of cholesterol-containing lipoproteins. Cells were then pulse –labeled for 2 h with 0.1 mM sodium [^14C] oleate. Cells were then washed, and the lipids were extracted in hexane:isopropanol (3:2, vol:vol), separated on a silica gel G thin-layer chromatogram (developed in heptane:ethylether:acetic acid, 90:30:1), and quantified by scintillation counting with the use of an internal standard for recovery.

As to `CCC(C)n1ncn(-c2ccc(N3CCN(c4ccc(OCC5COC(Cn6cncn6)(c6ccc(Cl)cc6Cl)O5)cc4)CC3)cc2)c1=O` (stereo not shown) [Itraconazole mixture, itraconazole], the half-maximal inhibitory concentration (IC50) is ~50 nM and 50 nM. Also, where the note is “0.01 uM compound”, the “cholesteryl [14C] oleate formed, Repeat 1” value (“cholesteryl … Repeat 1” below) is listed as 4.018 nanomoles formed per hour per milligram cell protein; the “cholesteryl [14C] oleate formed, Repeat 2” value (“cholesteryl … Repeat 2” below) is on record as 4.2448 nanomoles formed per hour per milligram cell protein; the “cholesteryl [14C] oleate formed, Repeat 3” value (“cholesteryl … Repeat 3” below) is 4.59 nanomoles formed per hour per milligram cell protein; the “cholesteryl [14C] oleate formed, Repeat 4” value (“cholesteryl … Repeat 4” below) was 4.561 nanomoles formed per hour per milligram cell protein. Also, for the setting “0.03 uM compound”, the “cholesteryl … Repeat 1” value was 5.241 nanomoles formed per hour per milligram cell protein; the “cholesteryl … Repeat 2” value is 3.3234 nanomoles formed per hour per milligram cell protein; the “cholesteryl … Repeat 3” value is 3.807 nanomoles formed per hour per milligram cell protein; the “cholesteryl … Repeat 4” value is reported as 5.72 nanomoles formed per hour per milligram cell protein. In addition, where the note is “0.06 uM compound”, the “cholesteryl … Repeat 1” value is reported as 1.349 nanomoles formed per hour per milligram cell protein; the “cholesteryl … Repeat 2” value was 2.23 nanomoles formed per hour per milligram cell protein; the “cholesteryl … Repeat 3” value is on record as 3.728 nanomoles formed per hour per milligram cell protein; the “cholesteryl … Repeat 4” value is recorded as 1.926 nanomoles formed per hour per milligram cell protein. In addition, under “0.1 uM compound”, the “cholesteryl … Repeat 1” value is on record as 1.053 nanomoles formed per hour per milligram cell protein; the “cholesteryl … Repeat 2” value is recorded as 0.9435 nanomoles formed per hour per milligram cell protein; the “cholesteryl … Repeat 3” value was 1.321 nanomoles formed per hour per milligram cell protein; the “cholesteryl … Repeat 4” value is 1.133 nanomoles formed per hour per milligram cell protein. Moreover, for the setting “0.3 uM compound”, the “cholesteryl … Repeat 1” value was 0.3641 nanomoles formed per hour per milligram cell protein; the “cholesteryl … Repeat 2” value is 0.3378 nanomoles formed per hour per milligram cell protein; the “cholesteryl … Repeat 3” value is 0.05082 nanomoles formed per hour per milligram cell protein; the “cholesteryl … Repeat 4” value is 0.1455 nanomoles formed per hour per milligram cell protein.

For `CC(=O)N1CCN(c2ccc(OCC3COC(Cn4ccnc4)(c4ccc(Cl)cc4Cl)O3)cc2)CC1` (stereo not shown) [Ketoconazole, ketoconazole], the IC50 was > 1000 nM. In addition, for the setting “0.06 uM compound”, the “cholesteryl … Repeat 1” value was 5.105 nanomoles formed per hour per milligram cell protein and the “cholesteryl … Repeat 2” value is reported as 4.499 nanomoles formed per hour per milligram cell protein. Further, where the note is “0.1 uM compound”, the “cholesteryl … Repeat 1” value was 5.133 nanomoles formed per hour per milligram cell protein; the “cholesteryl … Repeat 2” value is 5.266 nanomoles formed per hour per milligram cell protein; the “cholesteryl … Repeat 3” value is 5.665 nanomoles formed per hour per milligram cell protein; the “cholesteryl … Repeat 4” value is recorded as 5.29 nanomoles formed per hour per milligram cell protein. For the same molecule, where the note is “0.3 uM compound”, the “cholesteryl … Repeat 1” value is given as 4.872 nanomoles formed per hour per milligram cell protein; the “cholesteryl … Repeat 2” value was 4.637 nanomoles formed per hour per milligram cell protein; the “cholesteryl … Repeat 3” value is 4.5308 nanomoles formed per hour per milligram cell protein; the “cholesteryl … Repeat 4” value is listed as 5.341 nanomoles formed per hour per milligram cell protein. Besides, for the setting “1 uM compound”, the “cholesteryl … Repeat 1” value is 4.011 nanomoles formed per hour per milligram cell protein; the “cholesteryl … Repeat 2” value was 4.3222 nanomoles formed per hour per milligram cell protein; the “cholesteryl … Repeat 3” value is reported as 3.625 nanomoles formed per hour per milligram cell protein; the “cholesteryl … Repeat 4” value is reported as 4.546 nanomoles formed per hour per milligram cell protein. The “inhibition of NPC1-mediated cholesterol transport” value (result in words) is “did not inhibit”.
